US8957190B2, “Use of heat-resistant biotin-binding protein, and solid support having the protein attached thereto” (Japan Tobacco Inc., priority 2006, dated 2015)

Tests used:
[1] = Activity measurement by means of fluorescent biotin (method of Kada et al.); format: binding; settings: room temperature, 10 minutes
Procedure: By means of fluorescent biotin, tamavidin 2 was measured for its biotin-binding activity according to the method of Kada et al. (Biochim. Biophys. Acta., 1427: 44-48, (1999)). Solutions were prepared to contain the purified TM2 at stepwise concentrations from 0 pmol to 486 pmol in 200 μl assay buffer (50 mM NaH2PO4, 100 mM NaCl, 1 mM EDTA (pH 7.5)). These solutions were each mixed with 50 μL (1 nmol) of a 20 pmol/μL fluorescent biotin solution (biotin-4-fluorescein; Molecular Probe) and allowed to stand at room temperature for 10 minutes, followed by measuring the fluorescence intensity with a Las-3000 system (FUJIFILM). As a result, 0.274 nmol of TM2 was bound to nmol of fluorescent biotin. Namely, 3.6 mol of fluorescent biotin was bound to 1 mol of tamavidin. […] In the case of streptavidin, 3.4 mol of fluorescent biotin was bound per mol of streptavidin.

[2] = Kinetic analysis of tamavidin 2-biotin interaction using a Biacore 3000 biosensor (surface plasmon resonance); format: binding; settings: Biacore 3000, 25° C.
Procedure: Kinetic Analysis of Tamavidin 2 (TM2)-Biotin Interaction Using a Biacore Biosensor
Highly-purified BSA (2 mg, Sigma) and NHS-biotin (1 mg, Pierce) were dissolved in 1 ml of 50 mM sodium borate pH 8.0 and incubated at 4° C. for 2 hours. The NHS-biotin (EZ-Link NHS-LC-LC-Biotin) had been dissolved in a small volume of DMSO before addition. This solution was introduced into a dialysis tube (MWCO 6-8,000) and dialyzed overnight at 4° C. against 50 mM sodium carbonate pH 6.7. The biotin-BSA conjugate thus prepared (MW 67 kDa, 30 μM) was used as a ligand (a substance immobilized on a sensor chip) for a Biacore® biosensor. On the other hand, recombinant tamavidin 2 was prepared as an analyte (a substance flowing through channels) and analyzed for intermolecular interactions using a Biacore® 3000 (a biosensor designed on the principle of surface plasmon resonance, Biacore Inc.). Biotin-BSA and BSA alone (serving as a negative control) were each immobilized on CM5 sensor chips by amine coupling techniques. Their immobilized amount was adjusted to around 200 RU. BSA-immobilized chips were placed in flow cells 1 and 3, while biotin-BSA-immobilized chips were placed in flow cells 2 and 4. Tamavidin 2 was loaded into flow cells 1 and 2, while streptavidin was loaded into flow cells 3 and 4, each being loaded at a flow rate of 20 μl/min for 2 minutes in running buffer [10 mM HEPES pH 7.4, 150 mM NaCl, 3 mM EDTA, 0.005% Surfactant 20 (Biacore Inc.)]. The samples were then monitored for their dissociation over 60 minutes. […] The dissociation constant (Kd) was determined from kd/ka.
It should be noted that when the regeneration step was skipped, Rmax (the maximum binding amount of an analyte) was reduced ever time the measurement at each concentration was made. For this reason, Rmax was calculated by local fitting for each concentration during analysis. […]

[3] = Heat resistance: protein stability (heating, SDS-PAGE band quantification); format: physicochemical; settings: heated 20 minutes, soluble protein, SDS-PAGE, no biotin
Procedure: (§1) 0.2 μg/μL TM2 and 0.2 μg/μL streptavidin were heated in 10 μL (2 μg) volumes at room temperature, 50° C., 60° C., 70° C., 80° C., 90° C. or 99° C. for 20 minutes, followed by centrifugation at 15000 rpm for 10 minutes. Each supernatant (soluble protein) was suspended in an equal volume of 2×SDS sample buffer (100 mM Tris-HCl pH 6.8, 12% 2-mercaptoethanol, 2% SDS, 20% glycerol), heated at 95° C. for 10 minutes and then analyzed by SDS-PAGE. Protein bands were detected by CBB staining. Using a Las-3000 system (FUJIFILM), a calibration curve was prepared based on quantification markers (LMW ELECTROPHORESIS CALIBRATION KIT; Pharmacia Biotech) and used to quantify the protein bands. […]
as §1, with “Purified tamavidin 1 at a concentration of 0.2” for “0.2”, “was” for “TM2 and 0.2 μg/μL streptavidin were”

salmon sperm DNA = experiment: Test for non-specific binding to DNA (slot blot, antibody detection); settings: 25 μg/mL protein, salmon sperm DNA 10 μg to 0.3 μg on membrane
Procedure: TM2 was analyzed for its non-specific binding to DNA. Serial dilutions of salmon sperm DNA (10 μg to 0.3 μg) in 2×SSC buffer were alkali-denatured and adsorbed onto a Hybond N+ membrane (Amersham Biosciences) using Bio-Dot SF (BIO-RAD). The membrane was blocked with 5×Denhardt's solution (0.1% BSA, 0.1% Ficoll, 0, 1% polyvinylpyrrolidone) and then immersed in a 25 μg/mL TM2, streptavidin or avidin solution at room temperature for 90 minutes. The membrane was then washed three times with TTBS buffer (TBS buffer containing 0.05% Tween 20) at room temperature for 5 minutes. The membrane was blocked with TBS buffer containing 0.5% skimmed milk and 0.01% Tween 20 for 1 hour. The primary antibodies used were rabbit anti-TM2 antibody (purified as described above) for TM2, rabbit anti-streptavidin antibody (SIGMA) for streptavidin, and rabbit anti-avidin antibody (Abcam) for avidin, which were diluted to give the same antibody titer before use. Antigen-antibody reaction with each primary antibody was performed overnight at room temperature. […] The membrane was washed three times with TTBS buffer at room temperature for 5 minutes, and then developed with an Alkaline Phosphatase substrate kit II, vector Black (Funakoshi Co., Ltd., Japan), followed by quantification with a Las-3000 system (FUJIFILM).

[4] = background art; cited from earlier work
[5] = Heat resistance: fluorescent biotin-binding activity of heated biotin-binding proteins; settings: for temperature which caused a 50% reduction in fluorescence intensity decrement compared to the unheated sample: free protein, heated 20 minutes; for reduction of binding activity to fluorescent biotin: 20 minutes
Procedure: Based on the property of fluorescent biotin to lose its fluorescence intensity when bound to a biotin-binding site in a biotin-binding protein, tamavidin 2 was compared with streptavidin and avidin for biotin-binding capacity under high temperature conditions.
About 0.25 μg/μL TM2 and streptavidin were heated at room temperature, 50° C., 60° C., 70° C., 80° C. or 90° C. for 20 minutes. Solutions were prepared to contain the heat-treated TM2 or streptavidin at stepwise concentrations from 0 μL to 27 μL in 150 μL assay buffer (50 mM NaH2PO4, 100 mM NaCl, 1 mM EDTA (pH 7.5)). These solutions were each mixed with 50 μL (250 pmol) of a 5 pmol/μL fluorescent biotin solution (biotin-4-fluorescein; Molecular Probe) and allowed to stand at room temperature for 20 minutes, followed by measuring the fluorescence intensity with a Las-3000 system (FUJIFILM).
Heat resistance test on the biotin-binding proteins was accomplished as follows. About 0.25 μg/μL biotin-binding protein was heated at room temperature, 50° C., 60° C., 70° C., 80° C. or 90° C. for 20 minutes. Solutions were prepared to contain the heated biotin-binding protein at stepwise concentrations from 0 μL to 12 μL in 150 μL assay buffer. These solutions were each mixed with 50 μL (100 pmol) of a 2 pmol/μL fluorescent biotin solution and allowed to stand at room temperature for 20 minutes, followed by measuring the fluorescence intensity at Ex=460 nm and Em=525 nm with an Infinite M200 (TECAN).

[6] = 1:1 binding model, biotin-BSA ligand

Dissociation rate constant kd [2, 6] [s⁻¹] | Kd ([2]; determined from kd/ka, read-out: Dissociation constant Kd) [pM] | reduction of binding activity to fluorescent biotin ([5]; heated at 70° C.) [%] | reduction of binding activity to fluorescent biotin ([5]; heated at 80° C.) [%] | Substance | fluorescent biotin bound per mol of protein [1] [mol] | Association rate constant ks [2, 6] [M⁻¹ s⁻¹] | temperature which caused a 50% reduction in protein band intensity [3] [°C] | non-specific binding to DNA (staining intensity versus DNA concentration) (salmon sperm DNA) | isoelectric point [4] | temperature which caused a 50% reduction in fluorescence intensity decrement compared to the unheated sample [5] [°C]
2.52e-06 | 1.11 | 40 | 80 | Streptavidin: biotin-binding protein derived from an actinomycete strain (Streptomyces avidinii) [reference compound] | 3.4 | 2.28e+06 | 71 | not strongly affected by DNA concentration | around neutral pH | 73
– | – | 10 | 70 | avidin: albumen-derived basic glycoprotein binding biotin | – | – | – | DNA concentration-dependent increase in its staining intensity | exceeding 10 | 78
